“And” between values parts separate entries of the source, which are not always exact repeats. Identical values can stand only once. Like-named read-outs stand apart in the source and are kept apart here.
Legend:
Assay in all cases: Chemosensitivity, 96 h continuous exposure, MTT assay;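 on SI (NPI): adult human brain neural progenitor non-cancer cells from an epilepsy surgery patient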;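 on Selectivity Index using the NPI non-cancer cell line: adult human brain neural progenitor non-cancer cells from an epilepsy surgery patient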
Format in all cases: cell-based, human
HCT116 p53-/- = settings: for IC50 / Selectivity indices relative to ARPE-19, Ratio + anion:no anion / Selectivity indices relative to MCF10A, Ratio + anion:no anion: HCT116 p53-/-; for Selectivity index (ARPE19): IC50 ARPE-19 / IC50 HCT116 p53-/-; for Selectivity index (MCF10A): IC50 MCF10A / IC50 HCT116 p53-/-; for Relative potency (+ anion to no anion), Ratio + anion:no anion: ratio of IC50, HCT116 p53-/-; for Selectivity indices relative to ARPE-19, Ratio + anion:no anion: ratio of SI (ARPE-19); for Selectivity indices relative to MCF10A, Ratio + anion:no anion: ratio of SI (MCF 10A); for SI (ARPE19): mean IC50 ARPE-19 / mean IC50 HCT116 p53-/-; for SI (MCF10A): mean IC50 MCF10A / mean IC50 HCT116 p53-/-
Outline: (§1)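 Cells seeded at 2 × 10^3/well (GBM1 3 × 10^3/well) and left overnight at 37 °C, then exposed continuously for 96 h to a range of compound concentrations (final DMSO 0.2%). Viability read by MTT, absorbance at 540 nm; IC50 taken from dose-response curves as concentration reducing cell growth by 50%.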

HCT116 p53+/+ = settings: for IC50 / Selectivity indices relative to ARPE-19, Ratio + anion:no anion / Selectivity indices relative to MCF10A, Ratio + anion:no anion: HCT116 p53+/+; for Selectivity index (ARPE19): IC50 ARPE-19 / IC50 HCT116 p53+/+; for Selectivity index (MCF10A): IC50 MCF10A / IC50 HCT116 p53+/+; for Relative potency (+ anion to no anion), Ratio + anion:no anion: ratio of IC50, HCT116 p53+/+; for Selectivity indices relative to ARPE-19, Ratio + anion:no anion: ratio of SI (ARPE-19); for Selectivity indices relative to MCF10A, Ratio + anion:no anion: ratio of SI (MCF 10A)
Outline: as §1

H460 = settings: for Selectivity index (ARPE19): IC50 ARPE-19 / IC50 H460; for Selectivity index (MCF10A): IC50 MCF10A / IC50 H460; for Relative potency (+ anion to no anion), Ratio + anion:no anion: ratio of IC50, H460; for Selectivity indices relative to ARPE-19, Ratio + anion:no anion: ratio of SI (ARPE-19); for Selectivity indices relative to MCF10A, Ratio + anion:no anion: ratio of SI (MCF 10A)
Outline: as §1

MiaPaCa2 = settings: for Selectivity index (ARPE19): IC50 ARPE-19 / IC50 MiaPaCa2; for Selectivity index (MCF10A): IC50 MCF10A / IC50 MiaPaCa2; for Relative potency (+ anion to no anion), Ratio + anion:no anion: ratio of IC50, MiaPaCa2; for Selectivity indices relative to ARPE-19, Ratio + anion:no anion: ratio of SI (ARPE-19); for Selectivity indices relative to MCF10A, Ratio + anion:no anion: ratio of SI (MCF 10A)
Outline: as §1

[1] = mean of replicates, read-out: Mean IC50
[2] = single replicate, read-out: IC50 values for each replicate
[3] = H460, mean of replicates, read-out: Mean IC50
[4] = H460, read-out: Mean IC50 values
[5] = MiaPaCa2, mean of replicates, read-out: Mean IC50
[6] = MiaPaCa2, read-out: Mean IC50 values
[7] = MiaPaCa2, single replicate, read-out: IC50 values for each replicate
[8] = 96 h, MTT, mean of at least 3 independent experiments, read-out: Mean IC50

SMILES: O=S(=O)(O)O.[Zn+2].[Zn+2].[Zn+2].c1ccc(-c2csc(NCCN(CCNc3nc(-c4ccccn4)cs3)CCNc3nc(-c4ccccn4)cs3)n2)nc1.c1ccc(-c2csc(NCCN(CCNc3nc(-c4ccccn4)cs3)CCNc3nc(-c4ccccn4)cs3)n2)nc1 [[L2Zn3(SO4)]4+]
- IC50 (HCT116 p53-/-; [1]): 61 nM
- IC50 (HCT116 p53-/-; read-out: Mean IC50 values): 61 nM
- IC50 (HCT116 p53-/-; [2]): 59 nM and 64 nM and 61 nM
- Selectivity index (ARPE19) (HCT116 p53-/-): 2774.92
- Selectivity index (MCF10A) (HCT116 p53-/-): 249.64
- Relative potency (+ anion to no anion), Ratio + anion:no anion (HCT116 p53-/-): 0.85
- Selectivity indices relative to ARPE-19, Ratio + anion:no anion (HCT116 p53-/-): 1.271
- Selectivity indices relative to MCF10A, Ratio + anion:no anion (HCT116 p53-/-): 0.111
- IC50 (HCT116 p53+/+; [1]): 66 nM
- IC50 (HCT116 p53+/+; read-out: Mean IC50 values): 66 nM
- IC50 (HCT116 p53+/+; [2]): 63 nM and 74 nM and 62 nM
- Selectivity index (ARPE19) (HCT116 p53+/+): 2564.70
- Selectivity index (MCF10A) (HCT116 p53+/+): 230.73
- Relative potency (+ anion to no anion), Ratio + anion:no anion (HCT116 p53+/+): 0.14
- Selectivity indices relative to ARPE-19, Ratio + anion:no anion (HCT116 p53+/+): 7.600
- Selectivity indices relative to MCF10A, Ratio + anion:no anion (HCT116 p53+/+): 0.665
- IC50 (H460; [3]): 233 nM
- IC50 (H460; [4]): 233 nM
- IC50 (H460; H460, single replicate, read-out: IC50 values for each replicate): 189 nM and 262 nM and 250 nM
- Selectivity index (ARPE19) (H460): 726.48
- Selectivity index (MCF10A) (H460): 65.36
- Relative potency (+ anion to no anion), Ratio + anion:no anion (H460): 0.65
- Selectivity indices relative to ARPE-19, Ratio + anion:no anion (H460; H460): 1.663
- Selectivity indices relative to MCF10A, Ratio + anion:no anion (H460; H460): 1.128
- Selectivity index (ARPE19) (MiaPaCa2): 3.29
- Selectivity index (MCF10A) (MiaPaCa2): 0.30
- IC50 (MiaPaCa2; [5]): 51500 nM
- IC50 (MiaPaCa2; [6]): 51500 nM
- IC50 (MiaPaCa2; [7]): 52600 nM and 36700 nM and 60800 nM and 55800 nM
- Relative potency (+ anion to no anion), Ratio + anion:no anion (MiaPaCa2): 0.87
- Selectivity indices relative to ARPE-19, Ratio + anion:no anion (MiaPaCa2; MiaPaCa2): 1.236
- Selectivity indices relative to MCF10A, Ratio + anion:no anion (MiaPaCa2; MiaPaCa2): 0.108

SMILES: CC(=O)[O-].CC(=O)[O-].CC(=O)[O-].CC(=O)[O-].CC(=O)[O-].CC(=O)[O-].[Zn+2].[Zn+2].[Zn+2].c1ccc(-c2csc(NCCN(CCNc3nc(-c4ccccn4)cs3)CCNc3nc(-c4ccccn4)cs3)n2)nc1.c1ccc(-c2csc(NCCN(CCNc3nc(-c4ccccn4)cs3)CCNc3nc(-c4ccccn4)cs3)n2)nc1 [[L2Zn3]6+]
- IC50 (HCT116 p53-/-; 96 h, MTT, individual run, read-out: IC50 values for each replicate): 61 nM and 91 nM and 64 nM
- IC50 (HCT116 p53-/-; [8]): 72 nM
- IC50 (HCT116 p53-/-; 96 h, MTT, read-out: IC50): 70 ± 13 nM
- IC50 (HCT116 p53-/-; [1]): 75 nM
- IC50 (HCT116 p53-/-; read-out: Mean IC50 values): 72 nM
- IC50 (HCT116 p53-/-; [2]): 79 nM and 86 nM
- Selectivity index (ARPE19) (HCT116 p53-/-): 2184.03 and 2183.99
- Selectivity index (MCF10A) (HCT116 p53-/-): 2245.00
- Selectivity Index using the NPI non-cancer cell line (HCT116 p53-/-; IC50 NP1 / IC50 HCT116 p53-/-): 108.06
- more active towards HCT116 p53-/- than HCT116 p53+/+ (HCT116 p53-/-; based on 96h IC50 values): ~ 6 fold
- SI (ARPE19) (HCT116 p53-/-): 2184.03
- SI (ARPE19) (HCT116 p53-/-; listed as [L2Zn3]^6+): over 2000
- SI (MCF10A) (HCT116 p53-/-): 2245.00
- SI (MCF10A) (HCT116 p53-/-; listed as [L2Zn3]^6+): over 2000
- SI (NPI) (HCT116 p53-/-; mean IC50 NP1 / mean IC50 HCT116 p53-/-): 108.06
- Relative potency (+ anion to no anion), Ratio + anion:no anion (HCT116 p53-/-): 1
- Selectivity indices relative to ARPE-19, Ratio + anion:no anion (HCT116 p53-/-): 1
- Selectivity indices relative to MCF10A, Ratio + anion:no anion (HCT116 p53-/-): 1
- IC50 (HCT116 p53+/+; [8]): 466 nM
- IC50 (HCT116 p53+/+; [1]): 466 nM
- IC50 (HCT116 p53+/+; read-out: Mean IC50 values): 466 nM
- Selectivity index (ARPE19) (HCT116 p53+/+): 337.45 and 337.23
- Selectivity index (MCF10A) (HCT116 p53+/+): 346.87
- Selectivity Index using the NPI non-cancer cell line (HCT116 p53+/+; IC50 NP1 / IC50 HCT116 p53+/+): 16.70
- SI (ARPE19) (HCT116 p53+/+; mean IC50 ARPE-19 / mean IC50 HCT116 p53+/+): 337.45
- SI (MCF10A) (HCT116 p53+/+; mean IC50 MCF10A / mean IC50 HCT116 p53+/+): 346.87
- SI (NPI) (HCT116 p53+/+; mean IC50 NP1 / mean IC50 HCT116 p53+/+): 16.70
- Relative potency (+ anion to no anion), Ratio + anion:no anion (HCT116 p53+/+): 1
- Selectivity indices relative to ARPE-19, Ratio + anion:no anion (HCT116 p53+/+): 1
- Selectivity indices relative to MCF10A, Ratio + anion:no anion (HCT116 p53+/+): 1
- IC50 (H460; H460, 96 h, MTT, individual run, read-out: IC50 values for each replicate): 186 nM and 273 nM and 557 nM and 236 nM and 441 nM and 594 nM and 235 nM
- IC50 (H460; H460, 96 h, MTT, mean of at least 3 independent experiments, read-out: Mean IC50): 360 nM
- IC50 (H460; [3]): 360 nM
- IC50 (H460; [4]): 360 nM
- Selectivity index (ARPE19) (H460): 436.81
- Selectivity index (MCF10A) (H460): 449.00
- Selectivity Index using the NPI non-cancer cell line (H460; IC50 NP1 / IC50 H460): 21.61
- SI (ARPE19) (H460; mean IC50 ARPE-19 / mean IC50 H460): 436.81
- SI (MCF10A) (H460; mean IC50 MCF10A / mean IC50 H460): 449.00
- SI (NPI) (H460; mean IC50 NP1 / mean IC50 H460): 21.61
- Relative potency (+ anion to no anion), Ratio + anion:no anion (H460): 1
- Selectivity indices relative to ARPE-19, Ratio + anion:no anion (H460; H460): 1
- Selectivity indices relative to MCF10A, Ratio + anion:no anion (H460; H460): 1
- Selectivity index (ARPE19) (MiaPaCa2): 2.66
- Selectivity index (MCF10A) (MiaPaCa2): 2.74
- Selectivity Index using the NPI non-cancer cell line (MiaPaCa2; IC50 NP1 / IC50 MiaPaCa2): 0.13
- IC50 (MiaPaCa2; MiaPaCa2, 96 h, MTT, individual run, read-out: IC50 values for each replicate): 11900 nM and 15000 nM and 16300 nM
- IC50 (MiaPaCa2; [5]): 59100 nM
- IC50 (MiaPaCa2; [6]): 59100 nM
- IC50 (MiaPaCa2; [7]): 52700 nM and 64800 nM and 64500 nM and 54300 nM
- SI (ARPE19) (MiaPaCa2; mean IC50 ARPE-19 / mean IC50 MiaPaCa2): 10.90
- SI (MCF10A) (MiaPaCa2; mean IC50 MCF10A / mean IC50 MiaPaCa2): 11.21
- SI (NPI) (MiaPaCa2; mean IC50 NP1 / mean IC50 MiaPaCa2): 0.54
- Relative potency (+ anion to no anion), Ratio + anion:no anion (MiaPaCa2): 1
- Selectivity indices relative to ARPE-19, Ratio + anion:no anion (MiaPaCa2; MiaPaCa2): 1
- Selectivity indices relative to MCF10A, Ratio + anion:no anion (MiaPaCa2; MiaPaCa2): 1

Source: publication PMC8222254, “Self-assembly of an anion receptor with metal-dependent kinase inhibition and potent in vitro anti-cancer properties” (Nature Communications, 2021)
